In US6916604B2, “Uses of synthetic peptides corresponding to telopeptide sequences of cross-linked type I collagen metabolites” (Washington Research Foundation, priority 1987, dated 2005):
No end group written: not given here.

Tested on: MAb-1H11
Assay: ELISA of peptides competing against plated-out P1, or plated out as BSA conjugates, for MAb-1H11 binding
Parameters: species or system mouse
Settings: for recognition by MAb-1H11: ELISA, free peptides competing against plated-out P1, or conjugated to BSA and plated out; for competitive binding with MAb-1H11 (FIG. 9): absorbance at 450 nm of detectable marker bound to plated-out P1 vs concentration of free peptide; for recognition of free cross-linking amino acids by MAb-1H11: made by acid hydrolysis from bone collagen or as present naturally in urine

Molecule	recognition by MAb-1H11	competitive binding with MAb-1H11 (FIG. 9)	recognition of free cross-linking amino acids by MAb-1H11
YDEKSTGGC [SEQ ID NO:2]	not recognized	little if any significant competitive binding	–
QYDGKGVGC [SEQ ID NO:1]	not recognized	little if any significant competitive binding	–
NC(CCCC[n+]1cc(O)c(CC(N)C(=O)O)c(CCC(N)C(=O)O)c1)C(=O)O (stereo not drawn) [LP, lysyl pyridinoline, reference compound]	–	–	not recognized
NC(CCc1c[n+](CC(O)CCC(N)C(=O)O)cc(O)c1CC(N)C(=O)O)C(=O)O (stereo not drawn) [HP, hydroxylysyl pyridinoline, reference compound]	–	–	not recognized
